Assay results: ChEMBL document CHEMBL3507680, “University of Dundee, Gates Library screen for HepG2 cell viability”

Test: Human HepG2 cell viability assay in 384 well format
Type: toxicity, cell-based
Set-up: dose 125 nL, time 70.5 hour; cytotoxicity at 70.5 h: concentration not given beside the values
Conditions: HepG2 cells, read-out: Inhibition

In the case of `COc1ccccc1CNC(=O)C(C)N1CC(n2nc(C)cc2C)C1` (centres undefined), the cytotoxicity at 70.5 h is reported as -1.72%.
In the case of `COc1cccc(-c2nc(CNCc3cccnc3)cs2)c1`, the cytotoxicity at 70.5 h is reported as -17.2%.
Compound `CN(Cc1nc(CS(C)(=O)=O)no1)c1ccccc1` has a cytotoxicity at 70.5 h of -12.6%.
`Cc1ccccc1Cc1nc(CSc2nnc(N)n2C)no1` gave a cytotoxicity at 70.5 h of -17.8%.
`CC(C)c1noc(C(C)N2CCC(c3nc4ccccc4o3)CC2)n1` (centres undefined) showed a cytotoxicity at 70.5 h of -18.9%.
For `O=C1NCCCN1Cc1nc(-c2ccc(N3CCCCC3)cc2)no1`, the cytotoxicity at 70.5 h was -1.73%.
`Cc1ccn(C)c(=O)c1NC(=O)N(C)Cc1cccc(OC(C)C)c1` gave a cytotoxicity at 70.5 h of 18.1%.
Compound `CN(c1ncc(S(N)(=O)=O)s1)C1CCc2ccccc21` (centres undefined) has a cytotoxicity at 70.5 h of -1.27%.
Compound `Cc1cc(C(N)=O)ccc1NC(=O)N1CCN(c2cccs2)CC1` has a cytotoxicity at 70.5 h of -12.4%.
With `O=C(CCC1CCCO1)NCCCO` (centres undefined) the cytotoxicity at 70.5 h was -18.3%.
With `CCN(CC)C(=O)CN1CCCC1C(=O)N(C)C` (centres undefined) the cytotoxicity at 70.5 h was -11.8%.
`Cc1nn(C)c(C)c1C1COCCN1C(=O)NC1CC1` (centres undefined) gave a cytotoxicity at 70.5 h of 19.2%.
For `CCSc1cc(C(=O)N(C(C)C)C2CC2)ccn1`, the cytotoxicity at 70.5 h was -3.36%.
For `CCn1cc(CN2CCCN(C(=O)C3(C#N)CCCCC3)CC2)cn1`, the cytotoxicity at 70.5 h was 17.8%.
`COc1ccc(C)cc1CCNS(=O)(=O)c1ccc2c(c1)CCC(=O)N2` gave a cytotoxicity at 70.5 h of -18.5%.
Compound `CCN(CC1COc2ccccc2O1)C(=O)C1=NN(C)C(=O)CC1` (centres undefined) has a cytotoxicity at 70.5 h of -2.86%.
`CCC(NS(=O)(=O)N1CCOCC1)c1ccccc1OC` (centres undefined) gave a cytotoxicity at 70.5 h of -2.95%.
`O=C(Cn1nnn(-c2cccs2)c1=O)N(CC1CCOC1)C1CC1` (centres undefined) showed a cytotoxicity at 70.5 h of -9.03%.
`COCC(C)N(C)C(=O)CCc1c(C)nc2c(C#N)cnn2c1C` (centres undefined) gave a cytotoxicity at 70.5 h of 3.69%.
For `Cc1ccc(NCCCNC(=O)NCc2c(C)cc(C)[nH]c2=O)nc1`, the cytotoxicity at 70.5 h was -10.4%.
For `Cc1cc(C)c(CNC(=O)NCCCNc2ccccn2)c(=O)[nH]1`, the cytotoxicity at 70.5 h was 6.35%.
For `COc1ccc(C(C)NS(=O)(=O)c2ccc3c(c2)CCC(=O)N3)cc1F` (centres undefined), the cytotoxicity at 70.5 h was 12.7%.
For `Cc1nc2c(C#N)cnn2c(C)c1CCC(=O)N(C)C1CC1`, the cytotoxicity at 70.5 h was 8.54%.
Work on `COCCCN(C)S(=O)(=O)c1ccc(Cl)cc1C#N` yielded a cytotoxicity at 70.5 h of -14.2%.
`CSCC(C)N(C)S(=O)(=O)c1ccc(Cl)cc1C#N` (centres undefined) gave a cytotoxicity at 70.5 h of -5.66%.
Compound `CCC(CNC(=O)Cc1cc(C)on1)Oc1cccc(F)c1` (centres undefined) has a cytotoxicity at 70.5 h of 0.445%.
With `CC(C)SCc1cccc(NC(=O)NCCc2nnc[nH]2)c1` the cytotoxicity at 70.5 h was 11.5%.
For `CCC(O)CN(Cc1ccccc1)S(=O)(=O)c1cnc(C)s1` (centres undefined), the cytotoxicity at 70.5 h was -9.64%.
In the case of `CN(CC1COc2ccccc2O1)C(=O)C1=NN(C)C(=O)CC1` (centres undefined), the cytotoxicity at 70.5 h is reported as 8.57%.
Work on `COCCOc1ncccc1C(=O)N(C)c1ccc(OC)nc1` yielded a cytotoxicity at 70.5 h of -8.37%.
`CCCC(C#N)NC(=O)CCCOc1cccc(C(C)=O)c1` (centres undefined) showed a cytotoxicity at 70.5 h of 18%.
`CCCN(CC1COc2ccccc2O1)C(=O)C1=NN(C)C(=O)CC1` (centres undefined) showed a cytotoxicity at 70.5 h of -9.94%.
`COCC(=O)N(CCC(=O)OC)CC1CCCO1` (centres undefined) gave a cytotoxicity at 70.5 h of -10.3%.
`COc1ccc(CN2CCN(S(=O)(=O)c3cc(C(=O)O)cs3)CC2)cc1` showed a cytotoxicity at 70.5 h of -18.9%.
`O=C(NCCN1CCOCC1)c1ccn(-c2ccccc2F)n1` showed a cytotoxicity at 70.5 h of -2.56%.
For `O=C(CC1CCN(c2ncnc3cccc(F)c23)CC1)N1CCCC1`, the cytotoxicity at 70.5 h was -24.3%.
For `COCC(=O)N1CCN(c2ncnc3cccc(F)c23)CC1`, the cytotoxicity at 70.5 h was 0.217%.
For `O=C(C1CCN(c2ncnc3cccc(F)c23)CC1)N1CCCC1`, the cytotoxicity at 70.5 h was 8.28%.
In the case of `N#CC1(NC(=O)c2nccc3ccccc23)CCC1`, the cytotoxicity at 70.5 h is reported as -8.96%.
`NCC1(c2cccc(C(F)(F)F)c2)CCCC1` showed a cytotoxicity at 70.5 h of 15.4%.
In the case of `CC(NCc1ccc(-c2ccc(Cl)cc2)o1)c1nnc2n1CCC2` (centres undefined), the cytotoxicity at 70.5 h is reported as -4.6%.
For `CCc1nc(CCNC(=O)NC2CCC(=O)N(C)C2)sc1C` (centres undefined), the cytotoxicity at 70.5 h was -8.41%.
In the case of `CCCn1nc2c(cc1=O)CN(Cc1ncc(C(C)(C)C)o1)CC2`, the cytotoxicity at 70.5 h is reported as -4.85%.
For `CCn1nc2c(cc1=O)CN(Cc1cc(C)on1)CC2`, the cytotoxicity at 70.5 h was -3.67%.
`COc1cccc(CN(C)Cc2ccccc2C#N)c1OC` gave a cytotoxicity at 70.5 h of -1.91%.
`CC(C(=O)Nc1ccnn1C(C)C)N1CCN(Cc2ccccc2)CC1` (centres undefined) showed a cytotoxicity at 70.5 h of -7.81%.
For `CC(NCc1cc2cc(F)ccc2o1)c1nnc2n1CCCC2` (centres undefined), the cytotoxicity at 70.5 h was -5.97%.
With `NC(=O)c1cccc(NC(=O)CSc2ccc3c(c2)CCC3)c1` the cytotoxicity at 70.5 h was -1.16%.
Compound `O=C(c1ccccc1)C1CCN(c2cncc(-n3cccn3)n2)CC1` has a cytotoxicity at 70.5 h of 1.36%.
Compound `CCN1CCC(CNCc2cc(C)ccc2OC)C1` (centres undefined) has a cytotoxicity at 70.5 h of -8.51%.
Work on `COC(=O)c1ccc(NC(=O)CN2CCCCC2C2OCCO2)cc1` (centres undefined) yielded a cytotoxicity at 70.5 h of 0.785%.
`CNC(=O)c1cnc(/C=C/c2cc(OC)c(O)c(OC)c2)s1` gave a cytotoxicity at 70.5 h of -12.6%.
Compound `Cc1ccc(-n2nnc(C(=O)NCCS(N)(=O)=O)c2C2CC2)cc1` has a cytotoxicity at 70.5 h of -18.3%.
With `COc1ccc(NC(=O)c2ccco2)c(N2CCN(C(C)=O)CC2)n1` the cytotoxicity at 70.5 h was -11.7%.
Work on `CCS(=O)(=O)N(C)C1CCN(C(=O)c2ccc(Cl)cc2)CC1` yielded a cytotoxicity at 70.5 h of -15.5%.
Compound `CCS(=O)(=O)N(C)C1CCN(C(=O)c2ccc(C)c(C)c2)CC1` has a cytotoxicity at 70.5 h of -8.23%.
With `CN(CC(=O)Nc1nncs1)CC1CCCN1c1cccnn1` (centres undefined) the cytotoxicity at 70.5 h was 4.97%.
`Cc1cc(C)n(-c2cncc(N3CCN(C(=O)CN(C)C)CC3)n2)n1` gave a cytotoxicity at 70.5 h of -11.6%.
`CNc1ccccc1C(=O)N(C)CCc1ccccc1` showed a cytotoxicity at 70.5 h of -5.46%.
